Test results as given in patent publication US20250120967A1, “TYROSINE KINASES INHIBITORS AND USES THEREOF” (GREAT NOVEL THERAPEUTICS BIOTECH & MEDICALS CORPORATION, priority 2023, published 2025).
Read-outs that look alike come from different tables or passages of the source.

Assays:
RET = RET (Homo sapiens, UniProt P07949); test: Tyrosine kinase inhibition assay; assay type: biochemical; conditions: for inhibition at 1 µM: single concentration 1.0 μM, read-out: percent inhibition
Experimental: (§1) Tyrosine kinase inhibition assays were performed at ThermoFisher Life Technologies (Madison, WI, USA) using standard protocols (SelectScreen Biochemical Profiling Service, Thermo Fisher Scientific). ATP concentrations used were at the apparent Km. Test compounds were screened in 1% dimethylsulffoxide (DMSO) (final concentration) in the well. For 10-point titrations, 3-fold serial dilutions were conducted from the starting concentration of […]. All Peptide/Kinase Mixtures were diluted to a 2× working concentration in the appropriate Kinase Buffer. All ATP Solutions were diluted to a 4× working concentration in Kinase Buffer (50 mM HEPES pH 7.5, 0.01% BRIJ-35, 10 mM MgCl2, 1 mM EGTA). The apparent ATP Km was previously determined using a Z′-LYTE assay. The Development Reagent was diluted in Development Buffer.
(§2) The inhibition activities of compounds were determined in biochemical assays using single concentration (1.0 μM) measurements. The results were provided as percent inhibition values.

FRK (PTK5) = FRK (PTK5) (Homo sapiens, UniProt P42685); test: Tyrosine kinase inhibition assay; assay type: biochemical; conditions: for inhibition at 1 µM: single concentration 1.0 μM, read-out: percent inhibition; for IC50: read-out: IC50 of compound
Experimental: as §1, §2

TYRO3 (RSE) = molecular target: T1, TYRO3 (RSE) (Homo sapiens, UniProt Q06418); test: Tyrosine kinase inhibition assay; assay type: biochemical; conditions: for inhibition at 1 µM: single concentration 1.0 μM, read-out: percent inhibition
T1 sequence (Q06418 41-890): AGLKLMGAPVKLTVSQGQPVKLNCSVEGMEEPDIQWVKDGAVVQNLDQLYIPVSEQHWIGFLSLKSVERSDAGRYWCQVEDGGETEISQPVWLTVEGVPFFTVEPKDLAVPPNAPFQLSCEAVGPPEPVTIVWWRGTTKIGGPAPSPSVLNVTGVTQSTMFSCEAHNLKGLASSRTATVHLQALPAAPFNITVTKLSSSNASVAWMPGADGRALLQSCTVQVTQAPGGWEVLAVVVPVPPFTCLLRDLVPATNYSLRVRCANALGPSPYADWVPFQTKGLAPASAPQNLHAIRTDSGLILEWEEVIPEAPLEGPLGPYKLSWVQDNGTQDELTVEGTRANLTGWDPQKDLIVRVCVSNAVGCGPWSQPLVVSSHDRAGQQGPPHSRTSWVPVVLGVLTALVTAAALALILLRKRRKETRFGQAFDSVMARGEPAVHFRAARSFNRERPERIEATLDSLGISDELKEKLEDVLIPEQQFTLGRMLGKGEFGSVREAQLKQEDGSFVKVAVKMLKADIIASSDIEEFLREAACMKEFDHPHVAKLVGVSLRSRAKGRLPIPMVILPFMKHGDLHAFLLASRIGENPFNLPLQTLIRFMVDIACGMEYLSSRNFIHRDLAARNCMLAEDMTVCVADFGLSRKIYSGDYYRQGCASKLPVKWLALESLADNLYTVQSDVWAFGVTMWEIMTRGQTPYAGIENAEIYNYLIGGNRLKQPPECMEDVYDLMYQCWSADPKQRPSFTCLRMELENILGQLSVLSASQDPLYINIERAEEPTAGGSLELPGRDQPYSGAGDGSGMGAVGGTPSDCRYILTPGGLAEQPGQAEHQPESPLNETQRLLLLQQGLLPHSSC
Experimental: as §1
The inhibition activities of compounds were determined in biochemical assays using single concentration (1.0 μM) measurements. The results were provided as percent inhibition values. […] 99 different tyrosine kinases were used.

[1] = molecular target: PIK3CD/PIK3R1 (p110 delta/p85 alpha) (Homo sapiens, UniProt O00329); test: Tyrosine kinase inhibition assay; assay type: biochemical; conditions: single concentration 1.0 μM, read-out: percent inhibition
Experimental: as §1
(§3) The inhibition activities of compounds were determined in biochemical assays using single concentration (1.0 μM) measurements. The results were provided as percent inhibition values. A compound displaying a percent inhibition value of greater 80% was defined as a hit. 99 different tyrosine kinases were used.

EPHA5 = EPHA5 (Homo sapiens, UniProt P54756); test: Tyrosine kinase inhibition assay; assay type: biochemical; conditions: single concentration 1.0 μM, read-out: percent inhibition
Experimental: as §1, §3

TXK = molecular target: T2, TXK (Homo sapiens, UniProt P42681); test: Tyrosine kinase inhibition assay; assay type: biochemical; conditions: single concentration 1.0 μM, read-out: percent inhibition
T2 sequence (P42681 1-527): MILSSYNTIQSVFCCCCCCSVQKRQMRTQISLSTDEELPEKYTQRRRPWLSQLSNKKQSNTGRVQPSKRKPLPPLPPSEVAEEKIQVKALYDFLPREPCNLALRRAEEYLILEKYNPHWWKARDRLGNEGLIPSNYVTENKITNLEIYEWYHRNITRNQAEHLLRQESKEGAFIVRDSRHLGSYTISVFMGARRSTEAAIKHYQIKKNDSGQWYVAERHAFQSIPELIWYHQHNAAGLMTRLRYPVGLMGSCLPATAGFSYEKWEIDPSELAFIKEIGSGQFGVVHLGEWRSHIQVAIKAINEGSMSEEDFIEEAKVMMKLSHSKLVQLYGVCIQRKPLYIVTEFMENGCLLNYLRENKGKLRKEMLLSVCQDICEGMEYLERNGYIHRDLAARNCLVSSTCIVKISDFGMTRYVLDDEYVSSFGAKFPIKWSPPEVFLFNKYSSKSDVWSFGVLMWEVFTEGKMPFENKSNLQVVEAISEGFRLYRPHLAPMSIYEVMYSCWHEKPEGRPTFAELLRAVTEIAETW
Experimental: as §1, §3

NTRK3 (TRKC) = NTRK3 (TRKC) (Homo sapiens, UniProt Q16288); test: Tyrosine kinase inhibition assay; assay type: biochemical; conditions: single concentration 1.0 μM, read-out: percent inhibition
Experimental: as §1, §3

BLK = BLK (Homo sapiens, UniProt P51451); test: Tyrosine kinase inhibition assay; assay type: biochemical; conditions: single concentration 1.0 μM, read-out: percent inhibition
Experimental: as §1, §3

MDA-MB-453 cells = test: In vitro cytotoxicity assay (MTT, 72 h); assay type: cell-based; conditions: Homo sapiens, growth inhibition
Experimental: (§4) Six different cell lines were used, including human breast cancer cell lines MDA-MB-231 (6×10^3) and MDA-MB-453 (2.4×10^4), human colorectal cell line SW48 (2.4×10^4), human breast epithelial cell line M10 (6×10^3), human cancer cell line A549 (1.4×10^3), and murine colorectal carcinoma tumors CT26 (6×10^3), which were seeded in a 96-well plate. […] After 72 h, MTT assay (Cayman™) was used to determine the cellular viability.

A549 cells = test: In vitro cytotoxicity assay (MTT, 72 h); assay type: cell-based; conditions: Homo sapiens, growth inhibition
Experimental: as §4

M10 cells = test: In vitro cytotoxicity assay (MTT, 72 h); assay type: cell-based; conditions: growth inhibition, human normal cell line
Experimental: as §4

MDA-MB-231 cells = test: In vitro cytotoxicity assay (MTT, 72 h); assay type: cell-based; conditions: Homo sapiens, growth inhibition
Experimental: as §4

SW48 cells = test: In vitro cytotoxicity assay (MTT, 72 h); assay type: cell-based; conditions: Homo sapiens, growth inhibition
Experimental: as §4

CT-26 cells = test: In vitro cytotoxicity assay (MTT, 72 h); assay type: cell-based, murine; conditions: Mus musculus, CT26, growth inhibition
Experimental: as §4

[2] = TYRO3 (RSE), read-out: IC50 of compound

NTRK3 (TRKC), sequence (Q16288 32-839): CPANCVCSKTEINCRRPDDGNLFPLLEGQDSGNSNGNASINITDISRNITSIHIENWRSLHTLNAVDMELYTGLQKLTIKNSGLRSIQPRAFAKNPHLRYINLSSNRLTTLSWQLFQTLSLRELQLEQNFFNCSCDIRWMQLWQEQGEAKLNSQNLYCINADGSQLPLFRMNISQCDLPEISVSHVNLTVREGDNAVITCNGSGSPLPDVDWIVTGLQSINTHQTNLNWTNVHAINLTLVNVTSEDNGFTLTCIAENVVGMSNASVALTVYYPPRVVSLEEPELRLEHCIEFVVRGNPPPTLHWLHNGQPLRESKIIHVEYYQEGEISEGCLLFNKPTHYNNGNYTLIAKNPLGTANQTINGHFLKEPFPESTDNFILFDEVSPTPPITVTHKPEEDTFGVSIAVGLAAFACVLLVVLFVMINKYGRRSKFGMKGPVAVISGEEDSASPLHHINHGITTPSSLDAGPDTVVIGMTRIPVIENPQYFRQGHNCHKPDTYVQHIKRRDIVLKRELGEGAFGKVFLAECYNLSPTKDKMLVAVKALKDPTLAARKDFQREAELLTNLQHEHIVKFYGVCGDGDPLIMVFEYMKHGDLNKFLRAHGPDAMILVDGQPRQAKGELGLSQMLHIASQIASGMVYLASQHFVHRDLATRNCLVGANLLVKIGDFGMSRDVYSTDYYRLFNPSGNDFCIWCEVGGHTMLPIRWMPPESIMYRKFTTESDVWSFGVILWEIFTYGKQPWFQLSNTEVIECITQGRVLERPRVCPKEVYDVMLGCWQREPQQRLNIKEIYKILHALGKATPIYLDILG
BLK, sequence (P51451 whole entry): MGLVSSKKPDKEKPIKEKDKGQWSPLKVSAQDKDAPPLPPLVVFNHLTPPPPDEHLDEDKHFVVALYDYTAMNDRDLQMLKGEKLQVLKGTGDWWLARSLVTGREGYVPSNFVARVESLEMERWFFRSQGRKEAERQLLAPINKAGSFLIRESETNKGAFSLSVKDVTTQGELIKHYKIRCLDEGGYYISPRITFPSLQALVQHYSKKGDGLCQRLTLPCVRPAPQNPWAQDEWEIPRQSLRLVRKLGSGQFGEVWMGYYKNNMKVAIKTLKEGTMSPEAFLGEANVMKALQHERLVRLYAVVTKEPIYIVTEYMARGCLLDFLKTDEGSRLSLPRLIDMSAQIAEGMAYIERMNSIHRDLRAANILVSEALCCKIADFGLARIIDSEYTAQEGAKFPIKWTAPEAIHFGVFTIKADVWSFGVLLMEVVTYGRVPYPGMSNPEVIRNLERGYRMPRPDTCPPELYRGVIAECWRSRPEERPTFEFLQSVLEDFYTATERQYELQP
FRK (PTK5), sequence (P42685 whole entry): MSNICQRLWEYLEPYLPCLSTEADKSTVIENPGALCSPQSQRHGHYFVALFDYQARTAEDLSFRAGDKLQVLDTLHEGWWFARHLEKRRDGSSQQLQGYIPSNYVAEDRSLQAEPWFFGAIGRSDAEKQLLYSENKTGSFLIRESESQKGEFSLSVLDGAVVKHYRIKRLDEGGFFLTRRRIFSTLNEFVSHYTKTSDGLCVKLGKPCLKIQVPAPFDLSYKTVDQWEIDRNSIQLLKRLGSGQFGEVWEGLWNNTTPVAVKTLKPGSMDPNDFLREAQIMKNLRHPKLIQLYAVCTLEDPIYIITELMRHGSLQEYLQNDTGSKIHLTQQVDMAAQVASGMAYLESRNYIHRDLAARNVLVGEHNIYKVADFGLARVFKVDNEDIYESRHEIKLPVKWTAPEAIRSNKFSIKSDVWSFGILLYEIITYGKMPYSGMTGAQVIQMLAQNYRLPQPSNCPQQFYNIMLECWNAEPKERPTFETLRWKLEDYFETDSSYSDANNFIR
RET, sequence (P07949 29-1114): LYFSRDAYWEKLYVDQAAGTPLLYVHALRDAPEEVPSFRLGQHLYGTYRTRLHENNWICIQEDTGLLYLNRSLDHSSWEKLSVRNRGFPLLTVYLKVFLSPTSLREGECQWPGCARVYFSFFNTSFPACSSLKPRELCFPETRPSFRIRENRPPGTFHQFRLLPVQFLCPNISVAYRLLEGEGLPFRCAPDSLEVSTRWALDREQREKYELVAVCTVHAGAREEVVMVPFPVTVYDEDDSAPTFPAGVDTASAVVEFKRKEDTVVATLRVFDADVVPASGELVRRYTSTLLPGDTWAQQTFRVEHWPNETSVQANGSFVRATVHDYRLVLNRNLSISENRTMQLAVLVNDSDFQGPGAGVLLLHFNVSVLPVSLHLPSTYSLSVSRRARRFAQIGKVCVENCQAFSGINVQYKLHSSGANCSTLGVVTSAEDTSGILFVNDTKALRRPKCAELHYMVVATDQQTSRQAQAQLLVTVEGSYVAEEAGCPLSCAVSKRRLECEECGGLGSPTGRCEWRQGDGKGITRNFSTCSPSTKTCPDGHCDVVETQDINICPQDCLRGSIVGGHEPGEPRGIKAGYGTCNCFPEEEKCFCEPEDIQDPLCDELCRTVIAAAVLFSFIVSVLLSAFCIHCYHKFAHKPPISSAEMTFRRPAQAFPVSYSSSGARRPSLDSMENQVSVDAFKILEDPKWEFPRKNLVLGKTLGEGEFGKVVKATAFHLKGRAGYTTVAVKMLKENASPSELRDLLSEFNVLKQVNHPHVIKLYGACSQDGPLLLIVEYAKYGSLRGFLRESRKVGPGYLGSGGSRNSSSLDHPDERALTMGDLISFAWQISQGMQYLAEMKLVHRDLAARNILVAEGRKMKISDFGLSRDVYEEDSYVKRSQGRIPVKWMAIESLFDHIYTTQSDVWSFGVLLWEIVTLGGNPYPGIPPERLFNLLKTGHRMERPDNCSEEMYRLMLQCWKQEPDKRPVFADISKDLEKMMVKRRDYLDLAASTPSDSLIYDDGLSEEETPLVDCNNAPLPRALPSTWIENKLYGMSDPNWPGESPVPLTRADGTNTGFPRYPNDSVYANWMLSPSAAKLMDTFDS
EPHA5, sequence (P54756 25-1037): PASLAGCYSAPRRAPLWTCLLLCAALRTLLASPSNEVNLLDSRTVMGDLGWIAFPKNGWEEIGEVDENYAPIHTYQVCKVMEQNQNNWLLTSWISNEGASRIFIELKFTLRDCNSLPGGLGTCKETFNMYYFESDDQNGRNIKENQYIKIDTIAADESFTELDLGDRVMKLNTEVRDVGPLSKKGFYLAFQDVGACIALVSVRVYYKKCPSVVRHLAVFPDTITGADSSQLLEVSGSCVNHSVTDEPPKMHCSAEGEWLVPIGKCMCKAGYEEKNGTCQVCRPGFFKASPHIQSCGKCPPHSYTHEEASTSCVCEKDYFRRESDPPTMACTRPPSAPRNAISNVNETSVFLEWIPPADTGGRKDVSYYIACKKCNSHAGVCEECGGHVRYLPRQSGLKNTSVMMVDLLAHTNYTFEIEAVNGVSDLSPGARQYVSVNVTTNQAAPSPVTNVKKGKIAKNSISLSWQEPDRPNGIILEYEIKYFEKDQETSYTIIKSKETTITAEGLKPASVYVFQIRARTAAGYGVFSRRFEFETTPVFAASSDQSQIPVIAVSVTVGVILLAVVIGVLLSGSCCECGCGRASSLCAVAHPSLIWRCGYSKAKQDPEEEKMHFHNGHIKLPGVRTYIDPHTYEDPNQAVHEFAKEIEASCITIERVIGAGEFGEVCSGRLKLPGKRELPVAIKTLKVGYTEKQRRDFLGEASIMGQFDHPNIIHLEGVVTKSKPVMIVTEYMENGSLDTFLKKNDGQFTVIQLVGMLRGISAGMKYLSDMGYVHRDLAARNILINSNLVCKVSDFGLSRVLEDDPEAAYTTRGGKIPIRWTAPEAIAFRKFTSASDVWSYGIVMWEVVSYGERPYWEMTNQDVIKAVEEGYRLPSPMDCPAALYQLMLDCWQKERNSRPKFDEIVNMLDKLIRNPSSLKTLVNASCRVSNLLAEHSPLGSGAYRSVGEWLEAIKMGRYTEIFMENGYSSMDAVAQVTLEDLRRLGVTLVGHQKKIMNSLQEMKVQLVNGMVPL

| Compound | inhibition at 1 µM (RET) [%] | inhibition at 1 µM (FRK (PTK5)) [%] | IC50 (TYRO3 (RSE)) [nM] | inhibition at 1 µM [1] [%] | inhibition at 1 µM (EPHA5) [%] | inhibition at 1 µM (TXK) [%] | inhibition at 1 µM (NTRK3 (TRKC)) [%] | inhibition at 1 µM (BLK) [%] | IC50 (MDA-MB-453 cells) [nM] | IC50 (A549 cells) [nM] | IC50 (M10 cells) [nM] | IC50 (MDA-MB-231 cells) [nM] | IC50 (SW48 cells) [nM] | IC50 (CT-26 cells) [nM] | inhibition at 1 µM (TYRO3 (RSE); TYRO3 (RSE)) [%] | IC50 (FRK (PTK5)) [nM] | IC50 (TYRO3 (RSE); [2]) [nM] | IC50 (RET; read-out: IC50 of compound) [nM] |
| --- | --- | --- | --- | --- | --- | --- | --- | --- | --- | --- | --- | --- | --- | --- | --- | --- | --- | --- |
| COc1cc2nccc(Oc3ccc(NC(=O)C4(C(=O)Nc5ccc(F)cc5)CC4)cc3)c2cc1OC [Cabozantinib, reference compound] | 98 | 99 | 9.1 | -1 | 100 | 17 | 97 | 83 | 20500 ± 4480 | 4050 ± 460 | 9570 ± 1620 | 8720 ± 1080 | 4330 ± 330 | 19600 ± 4300 |  |  |  |  |
| COc1cc2nccc(Oc3ccc(NC(=O)C4(NC(=O)c5ccc(F)cc5)CC4)cc3F)c2cc1OC [Cbo-02, N-(1-((4-((6,7-diMethoxyquinolin-4-yl)oxy)-3-fluorophenyl)carbamoyl)cyclopropyl)-4-fluorobenzamide] | 67 | 59 |  | -6 | 41 | 14 | 58 | 61 | 5310 ± 570 | 1510 ± 57 | 3920 ± 250 | 5640 ± 360 | 820 ± 11 | 8200 ± 600 | 58 |  |  |  |
| COc1cc2nccc(Oc3ccc(NC(=O)C4(NC(=O)c5ccc(F)cc5)CC4)cc3F)c2cc1Oc1ccc(N)cc1F [Cbo-10] | 79 | 91 |  | 12 | 87 | 55 | 89 | 80 | 4670 ± 280 | 1180 ± 36 | 911 ± 25 | 2450 ± 140 | 790 ± 1 | 5010 ± 160 | 87 |  |  |  |
| COc1cc2nccc(Oc3ccc(NC(=O)C4(NC(=O)c5ccc(F)cc5)CC4)cc3F)c2cc1Oc1c(F)cc(N)cc1F [Cbo-14] | 89 | 100 |  | 16 | 92 | 52 | 98 | 80 | 2680 ± 750 | 1230 ± 34 | 920 ± 8 | 14400 ± 5300 | 790 ± 1 | 4900 ± 110 | 89 |  |  |  |
| COc1cc2nccc(Oc3ccc(NC(=O)C4(C(=O)Nc5ccc(F)cc5)CC4)cc3F)c2cc1Oc1ccc(N)cc1F [Cbo-23] | 101 | 99 |  | 2 | 99 | 32 | 98 | 93 | 1710 ± 140 | 1690 ± 130 | 1010 ± 20 | 1950 ± 1950 | 790 ± 5 | 5180 ± 1730 | 100 | 27 | 12.5 |  |
| CNC(=O)c1cc2c(Oc3ccc(NC(=O)C4(C(=O)Nc5ccc(F)cc5)CC4)cc3)ccnc2cc1OC [Zanzalintinib, reference compound] |  |  |  |  |  |  |  |  | 22600 ± 1050 | 7580 ± 180 | 3280 ± 1840 | 6170 ± 150 | 6860 ± 260 | 22000 ± 290 |  | 10.3 | 9.49 | 22.5 |
